# Test results published in patent publication US8609660B2, “4,7-dihydro-pyrazolo[1,5-a]pyrazin-6-ylamine derivatives useful as inhibitors of beta-secretase (BACE)” (Janssen Pharmaceutica NV, priority 2010, dated 2013).
# Experiments:
# [1] = tested on: Aβ42 produced and secreted into the medium of human neuroblastoma SKNBE2 cells; test: Cellular αlisa assay in SKNBE2 cells, Aβ42; format: cell-based; settings: SKNBE2 cells expressing hAPP695, 18 hours incubation; for IC50: Homo sapiens, SKNBE2, 18 h, read-out: Cellular αlisa assay in SKNBE2 cells Aβ42 pIC50 (converted)
# Description: (§1) Cellular αlisa Assay in SKNBE2 Cells In two αlisa assays the levels of Aβtotal and Aβ42 produced and secreted into the medium of human neuroblastoma SKNBE2 cells are quantified. The assay is based on the human neuroblastoma SKNBE2 expressing the wild type Amyloid Precursor Protein (hAPP695). […] Aβtotal and Aβ42 are measured by sandwich α[…] sandwich assay using biotinylated antibody AbN/25 attached to streptavidin coated beads and antibody Ab4G8 or cAb42/26 conjugated acceptor beads for the detection of Aβtotal and Aβ42 respectively. In the presence of Aβtotal or Aβ42, the beads come into close proximity. The excitation of the Donor beads provokes the release of singlet oxygen molecules that triggers a cascade of energy transfer in the Acceptor beads, resulting in light emission. Light emission is measured after 1 hour incubation (excitation at […] and emission at 615 nm). A best-fit curve is fitted by a minimum sum of squares method to the plot of % Controlmin versus compound concentration. […] [formula]
# [2] = molecular target: T1, recombinant BACE1 protein (Homo sapiens, UniProt P56817); test: Biochemical FRET based assay; settings: recombinant BACE1 1 μg/ml, 120 min, room temperature, pH 5.0; for IC50: read-out: Biochemical FRET based assay pIC50 (converted)
# T1 construct: recombinant BACE1 protein in a final concentration of 1 μg/ml
# Excerpt: Biochemical FRET Based Assay This assay is a Fluorescence Resonance Energy Transfer Assay (FRET) based assay. The substrate for this assay is an APP derived 13 amino acids peptide that contains the 'Swedish' […] mutation of the amyloid precursor protein (APP) β-secretase cleavage site. […] Upon cleavage by BACE1, the fluorophore Mca is separated from the quenching group Dnp, restoring the full fluorescence yield of the donor. The increase in fluorescence is linearly related to the rate of proteolysis (Koike H et al. J Biochem. 1999, 126, 235-42). Briefly in a 384-well format recombinant BACE1 protein in a final concentration of 1 μg/ml is incubated for 120 minutes at room temperature with 10 μm substrate in incubation buffer (40 mM Citrate buffer pH 5.0, 0.04% PEG, 4% DMSO) in the absence or presence of compound. Next the amount of proteolysis is directly measured by fluorescence measurement at T=0 and T=120 (excitation at 320 nm and emission at 405 nm). […] [formula]
# [3] = tested on: Aβtotal produced and secreted into the medium of human neuroblastoma SKNBE2 cells; test: Cellular αlisa assay in SKNBE2 cells, Aβtotal; format: cell-based; settings: SKNBE2 cells expressing hAPP695, 18 hours incubation; for IC50: Homo sapiens, SKNBE2, 18 h, read-out: Cellular αlisa assay in SKNBE2 cells Aβtotal pIC50 (converted)
# Description: as §1
# T1 sequence (P56817 46-501): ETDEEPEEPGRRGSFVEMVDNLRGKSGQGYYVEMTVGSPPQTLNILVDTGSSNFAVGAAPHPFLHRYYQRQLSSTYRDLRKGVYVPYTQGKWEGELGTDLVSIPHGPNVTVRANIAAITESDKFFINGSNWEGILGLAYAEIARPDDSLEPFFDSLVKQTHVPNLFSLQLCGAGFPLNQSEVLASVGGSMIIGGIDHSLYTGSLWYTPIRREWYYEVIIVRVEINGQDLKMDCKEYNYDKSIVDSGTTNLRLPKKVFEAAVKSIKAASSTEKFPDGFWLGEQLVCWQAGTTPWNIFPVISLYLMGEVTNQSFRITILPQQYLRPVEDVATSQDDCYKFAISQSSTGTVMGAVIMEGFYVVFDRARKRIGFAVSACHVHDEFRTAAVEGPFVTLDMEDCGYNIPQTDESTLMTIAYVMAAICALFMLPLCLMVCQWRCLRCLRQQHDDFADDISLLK
Structure (SMILES),IC50 [1] [nM],IC50 [2] [nM],IC50 [3] [nM],Cellular αlisa assay in SKNBE2 cells Aβ42 pIC50 [1],Biochemical FRET based assay pIC50 [2],Cellular αlisa assay in SKNBE2 cells Aβtotal pIC50 [3]
"CC1(c2cccc(-c3cncnc3)c2)N=C(N)Cn2nccc21 (racemic) [Compound 1, rac-4-methyl-4-(3-pyrimidin-5-ylphenyl)-4,7-dihydropyrazolo[1,5-a]pyrazin-6-amine]",457,3310,355,–,–,–
"CC1(c2cccc(NC(=O)c3ccc(Cl)cn3)c2)N=C(N)Cn2nccc21 (racemic) [Compound 3, rac-N-[3-(6-amino-4-methyl-4,7-dihydropyrazolo[1,5-a]pyrazin-4-yl)-phenyl]-5-chloropyridine-2-carboxamide]",10.7,–,11.7,–,–,–
COc1cncc(-c2cc(C3(C)N=C(N)Cn4nccc43)c(F)cc2F)c1 (racemic) [Compound 5],–,–,–,6.4,5.49,6.41
COc1cccc(-c2cc(C3(C)N=C(N)Cn4nccc43)c(F)cc2F)c1 (racemic) [Compound 6],–,–,–,6.06,5.53,6.13
CC1(c2cc(-c3ccccc3)c(F)cc2F)N=C(N)Cn2nccc21 (racemic) [Compound 12],–,–,–,5.58,4.88,5.67
CC1(c2cc(NC(=O)c3ccc(Cl)cn3)ccc2F)N=C(N)Cn2nccc21 (racemic) [Compound 13],–,–,–,7.72,6.84,7.73
CC1(c2cc(-c3cc(Cl)cc(Cl)c3)ccc2F)N=C(N)Cn2nccc21 (racemic) [Compound 15],–,–,–,5.48,5.68,5.52
CC1(c2cc(-c3cncnc3)ccc2F)N=C(N)Cn2nccc21 (racemic) [Compound 16],–,–,–,5.53,4.98,5.48
CC1(c2cc(-c3cccc(C#N)c3)c(F)cc2F)N=C(N)Cn2nccc21 (racemic) [Compound 18],–,–,–,5.76,4.75,5.67
COc1cnc(C(=O)Nc2ccc(F)c(C3(C)N=C(N)Cn4nc(C(F)(F)F)cc43)c2)cn1 (racemic) [Compound 30],–,–,–,6.8,6.68,6.78
"COc1cncc(-c2cccc(C3(C)N=C(N)Cn4nc(C(F)(F)F)cc43)c2)c1 (single isomer, unassigned) [Compound 22, (R*)-4-[3-(5-methoxypyridin-3-yl)-phenyl]-4-methyl-2-(trifluoromethyl)-4,7-dihydropyrazolo[1,5-a]pyrazin-6-amine]",–,603,–,6.13,–,6.18
"COc1cncc(-c2cccc(C3(C)N=C(N)Cn4nc(C(F)(F)F)cc43)c2)c1 (single isomer, unassigned) [Compound 23, (S*)-4-[3-(5-methoxypyridin-3-yl)-phenyl]-4-methyl-2-(trifluoromethyl)-4,7-dihydropyrazolo[1,5-a]pyrazin-6-amine]",–,> 30200,–,<5,–,<5
"CC1(c2cc(-c3cncc(Cl)c3)ccc2F)N=C(N)Cn2nc(C(F)(F)F)cc21 (single isomer, unassigned) [Compound 25, (R*)-4-[5-(5-chloropyridin-3-yl)-2-fluorophenyl]-4-methyl-2-(trifluoromethyl)-4,7-dihydropyrazolo[1,5-a]pyrazin-6-amine]",–,3630,–,5.5,–,5.64
"CC1(c2cc(-c3cncc(Cl)c3)ccc2F)N=C(N)Cn2nc(C(F)(F)F)cc21 (single isomer, unassigned) [Compound 26, (S*)-4-[5-(5-chloropyridin-3-yl)-2-fluorophenyl]-4-methyl-2-(trifluoromethyl)-4,7-dihydropyrazolo[1,5-a]pyrazin-6-amine]",–,> 30200,–,<5,–,<5
"CC1(c2cc(NC(=O)c3ncc(Cl)cc3Cl)ccc2F)N=C(N)Cn2nc(C(F)(F)F)cc21 (single isomer, unassigned) [Compound 28, (R*)—N-{3-[6-amino-4-methyl-2-(trifluoromethyl)-4,7-dihydropyrazolo[1,5-a]pyrazin-4-yl]-4-fluorophenyl}-3,5-dichloropyridine-2-carboxamide]",–,91.2,–,6.99,–,7.1
"CC1(c2cc(NC(=O)c3ncc(Cl)cc3Cl)ccc2F)N=C(N)Cn2nc(C(F)(F)F)cc21 (single isomer, unassigned) [Compound 29, (S*)—N-{3-[6-amino-4-methyl-2-(trifluoromethyl)-4,7-dihydropyrazolo[1,5-a]pyrazin-4-yl]-4-fluorophenyl}-3,5-dichloropyridine-2-carboxamide]",–,15500,–,<5,–,<5
"COc1cnc(C(=O)Nc2ccc(F)c(C3(C)N=C(N)Cn4nc(C(F)(F)F)cc43)c2)cn1 (single isomer, unassigned) [Compound 31]",–,–,–,6.92,6.73,6.99
"COc1cnc(C(=O)Nc2ccc(F)c(C3(C)N=C(N)Cn4nc(C(F)(F)F)cc43)c2)cn1 (single isomer, unassigned) [Compound 32]",–,–,–,6.56,<4.52,6.54
CC1(c2cccc(-c3cncnc3)c2)N=C(N)Cn2nccc21 (stereo not shown) [Compound 8],–,–,–,6.61,5.65,6.54
COc1cncc(-c2cccc(C3(C)N=C(N)Cn4nccc43)c2)c1 (stereo not shown) [Compound 9],–,–,–,6.93,6.05,6.94
CC1(c2cccc(-c3cc(F)cc(F)c3)c2)N=C(N)Cn2nccc21 (stereo not shown) [Compound 14],–,–,–,6.09,6.11,6.11
CC1(c2cccc(NC(=O)c3ccc(Cl)cn3)c2)N=C(N)Cn2nccc21 (stereo not shown) [Compound 17],–,–,–,8.09,–,8.08
CC1(c2cccc(-c3cccc(OC(F)(F)F)c3)c2)N=C(N)Cn2nccc21 (stereo not shown) [Compound 19],–,–,–,5.81,5.77,5.91
"COc1cncc(-c2cccc(C3(C)N=C(N)Cn4nc(C(F)(F)F)cc43)c2)c1 (stereo not drawn) [Compound 21, rac-4-[3-(5-methoxypyridin-3-yl)-phenyl]-4-methyl-2-(trifluoromethyl)-4,7-dihydropyrazolo[1,5-a]pyrazin-6-amine]",407,1070,398,–,–,–
"CC1(c2cc(-c3cncc(Cl)c3)ccc2F)N=C(N)Cn2nc(C(F)(F)F)cc21 (stereo not drawn) [Compound 24, rac-4-[5-(5-chloropyridin-3-yl)-2-fluorophenyl]-4-methyl-2-(trifluoromethyl)-4,7-dihydropyrazolo[1,5-a]pyrazin-6-amine]",5890,7240,5370,–,–,–
"CC1(c2cc(NC(=O)c3ncc(Cl)cc3Cl)ccc2F)N=C(N)Cn2nc(C(F)(F)F)cc21 (stereo not drawn) [Compound 27, rac-N-{3-[6-amino-4-methyl-2-(trifluoromethyl)-4,7-dihydropyrazolo[1,5-a]pyrazin-4-yl]-4-fluorophenyl}-3,5-dichloropyridine-2-carboxamide]",170,145,170,–,–,–
COc1cnc(C(=O)Nc2ccc(F)c(C3(C4CC4)N=C(N)Cn4nccc43)c2)cn1 (stereo not shown) [Compound 34],–,–,–,7.11,6.51,7.19
